In paper PMC6416898, “Prediction of Toxoplasma gondii virulence factor ROP18 competitive inhibitors by virtual screening” (Parasites & Vectors, 2019):
Read-outs that look alike come from different tables or passages of the source.

Target: T1, ROP18 (187–554 aa) kinase domain (Toxoplasma gondii, UniProt Q2PAY2)
T1 construct: kinase domain 187-554 of ROP18; His6-GST-MBP-Gb1 fusion from plasmid pETDL4.0-ROP18, E. coli Rosetta 2, amylose beads; 4JRN is the docking structure (187-554), not solved here
T1 sequence (Q2PAY2 187-554): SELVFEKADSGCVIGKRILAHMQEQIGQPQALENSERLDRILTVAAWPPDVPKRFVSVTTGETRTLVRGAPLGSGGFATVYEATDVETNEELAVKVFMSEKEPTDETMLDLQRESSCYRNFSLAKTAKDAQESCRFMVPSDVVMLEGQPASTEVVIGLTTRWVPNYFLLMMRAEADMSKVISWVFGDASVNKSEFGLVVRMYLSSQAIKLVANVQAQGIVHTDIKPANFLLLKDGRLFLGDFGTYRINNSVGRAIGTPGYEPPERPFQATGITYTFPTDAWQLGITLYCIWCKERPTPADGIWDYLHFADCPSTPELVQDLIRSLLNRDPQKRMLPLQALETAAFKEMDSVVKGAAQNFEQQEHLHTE
Assay: HTRF KinEASE kinase assay with biotinylated peptide substrate
Format: biochemical

SMILES | IC50 [nM] | IC50 (read-out: IC50) [nM]
C=CCN1C(=O)NC(=O)/C(=C/c2cc(Br)c(OCC(=O)O)c(OC)c2)C1=O [compound 1] | 220 | –
O=C(O)CCCCCN1C(=O)c2c(Br)c(Br)c(Br)c(Br)c2C1=O [compound 11, AK-918/11642046] | – | 41
